{
  "source": "paper PMC7885111",
  "about": "“ApmA Is a Unique Aminoglycoside Antibiotic Acetyltransferase That Inactivates Apramycin” (mBio, 2021)",
  "key": {"[1]": {"biological_target": "T1, ApmA (Staphylococcus aureus, UniProt A0A1D0AST6)", "T1 construct": "full length, residues 1-274 described; synthetic gene in pET19b-TEV, E. coli BL21(DE3) host; N-terminal His10 tag cut by TEV for crystals; SeMet form also made; trimer", "T1 sequence (A0A1D0AST6 entry or part of it)": "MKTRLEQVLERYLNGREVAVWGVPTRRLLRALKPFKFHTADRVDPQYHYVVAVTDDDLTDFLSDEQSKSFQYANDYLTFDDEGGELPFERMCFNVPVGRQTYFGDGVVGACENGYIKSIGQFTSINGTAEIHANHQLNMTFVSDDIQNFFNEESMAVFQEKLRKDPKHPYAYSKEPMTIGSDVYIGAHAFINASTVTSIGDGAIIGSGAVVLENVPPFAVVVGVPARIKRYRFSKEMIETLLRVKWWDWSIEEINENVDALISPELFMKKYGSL", "test": "X-ray crystallography ([…] A)", "assay_type": "binding", "conditions": "acetyl donor; crystals: 0.1 M citric acid pH 3.6, 30% PEG 200, 5 mM apramycin, 2 mM acetyl-CoA"}, "[2]": {"biological_target": "T1, ApmA", "test": "X-ray crystallography ([…] A); acetylation product shown by HR-ESI-MS and NMR", "assay_type": "binding", "conditions": "crystals: 0.2 M CaCl (so in the source), 20% PEG 3350, 5 mM apramycin; turnover: 500 uM acetyl-CoA, pH 7.5, room temperature; acetylated at 2'-NH2; PDB id printed as 7J6M2 (typo for 7JM2)"}},
  "data": [
    {"smiles": "CC(=O)SCCNC(=O)CCNC(=O)[C@H](O)C(C)(C)COP(=O)(O)OP(=O)(O)OC[C@H]1O[C@@H](n2cnc3c(N)ncnc32)[C@H](O)[C@@H]1OP(=O)(O)O", "note": "[acetyl-CoA]", "values": [
      {"measurement": "X-ray crystallography (2.30 A)", "setting": "[1]", "result": "7JM1 (ApmA complex with acetyl-CoA)"}
    ]},
    {"smiles": "CN[C@@H]1[C@@H](O[C@H]2O[C@H](CO)[C@@H](N)[C@H](O)[C@H]2O)O[C@H]2C[C@@H](N)[C@@H](O[C@H]3[C@H](O)[C@@H](O)[C@H](N)C[C@@H]3N)O[C@@H]2[C@@H]1O", "note": "[apramycin]", "values": [
      {"measurement": "X-ray crystallography (1.85 A); acetylation product shown by HR-ESI-MS and NMR", "setting": "[2]", "result": "Crystals of the apoenzyme and ApmA in complex with apramycin or acetyl-CoA were obtained"}
    ]}
  ]
}
